# Experimental data taken from patent publication US4636496A, “Compositions inhibiting murine MXT ductal carcinoma” (Wayne State University, priority 1986, dated 1987).
# Entries after “also recorded” stand apart in the source; their conditions may differ.
# Experiments:
# [1] = tested on: Mammary Tumors Induced by Dimethylbenz(a)anthracene; assay: Effects on mammary tumors induced by dimethylbenz(a)anthracene (DMBA), s.c. injection for 35 days; format: in vivo, Sprague-Dawley rats; details: for Mean tumor volume / Mean tumor no. (no. tumors/rat): 24 mg/kg s.c., 35 days, 7-10 rats/group, mean ± S.D.; for Mean tumor volume: control (None) 1.48 ± 2.09; for Mean tumor no. (no. tumors/rat): control (None) 3.30 ± 2.60; for significance of treatment results (in words): compared to control tumors, Student's t test
# Excerpt: Chemicals and Reagents. Estrone, 17-beta-estradiol 3-benzoate, estrone sulfate, aryl sulfatase (EC 3.1.6.1), beta-glucuronidase (EC3.2.1.31), 7,12-dimethylbenz(a)anthracene (DMBA), and 5-fluorouracil were obtained from Sigma Chemical Co. (St. Louis, Mo.). 4-Nitroestrone 3-methyl ether, 4-nitroestrone, and 2,4-dinitroestrone were synthesized by the procedures of Tomson et al., supra.
# Animals. Virgin female Sprague-Dawley rats (The Charles River Co., Wilmington, Mass.) were housed 4 to 6/cage in a light (12 hr/day)--and temperature (24°)--controlled room and given a diet of Wayne Lab-Blox laboratory chow (Allied Mills, Inc., Chicago, Ill.) and tap water ad libitum. At 50 days of age, rats were intubated with DMBA (10 mg/100 g body weight) dissolved in sesame oil (20 mg/ml). Beginning at Day 45 after intubation, all animals were weighed and palpated once per week. Tumor volumes were calculated by measuring 2 diameters with a caliper and the third dimension with a ruler, then by substituting values:
# where a, b, and c are the 3 different diameters of the tumor. The agreement of the in vivo tumor volume and measurements of excised tumors identified at necropsy was 95 to 99%. When about 75% of rats had palpable tumors (81 to 92 days after intubation), the animals were randomized, excluding rats with tumors larger than 2.00 ml and rats with more than 5 tumors/animal. The mean initial tumor volumes in control and treated groups ranged between 0.4 and 0.9 cu cm over the various experiments. When necessary, ovariectomy (ether anesthesia) was performed on the first or second day after the initiation of the study. The significance of difference between treatment groups was examined by Student's t test.
# Estrogen derivatives (>99% pure by thin-layer chromatography) were injected s.c. daily (Monday to Friday). After distribution in SSV (steroid-suspending vehicles, 0.9% NaCl solution with 0.5% sodium carboxymethyl-cellulose-7, 0.4% polysorbate; and 0.9% benzylalcohol, obtained from the National Cancer Institute), the steroids (20 mg/ml) were administered at 0.12 to 54 mg/kg body weight. The suspension was sonicated before use to achieve uniform distribution. 17-Beta-estradiol 3-benzoate was dissolved directly in sesame oil to a concentration of 2.5 mg/ml; 5 fluorouracil was dissolved in water (25 mg/ml). The control group was given injections of SSV or sesame oil alone.
# The toxicity of all antitumor agents was determined by comparing body weights of treated and control animals.
# Postmortem Examination and Histopathology of Tumors. Rats were selected for colchicine injections (2 mg/kg body weight) 2 hr prior to necropsy to obtain an accurate measurement of mitotic indices of tumors. Animals were sacrificed with CO2 gas or bled to death via the abdominal aorta. Tumors and tissues were removed and preserved in 10% neutral buffered formalin for histopathological examination. Gross anomalies of abdominal, thoracic, and cranial cavities were recorded. Uteri were removed, trimmed, and weighed fresh. Ovaries, adrenals, and pituitaries were trimmed and weighed after fixation.
# Histopathological observations on hematoxylin-and iosin-stained tumor and organ sections were performed, and comparisons between the control and treated groups were carried out using computer analysis. The microscopic parameters used to judge the degree of anaplasia in DMBA-induced mammary neoplasms, when treated animals were compared to controls, were: (a) the type of epithelium or mammary tissue involved; (b) the degree of encapsulation of the neoplasm; (c) the number of mitotic figures observed; (d) the extent of stroma invasions of the neoplastic epithelium; (e) the severity of lymphocytic infiltration of the neoplasms; and (f) the regressive, degenerative, or vacuolative changes in the neoplastic epithelium. […] Histological examination was performed on all mammary tumors. […]
# [2] = tested on: hormone dependent mammary tumors, induced by 7,12-dimethylbenz(a)anthracene; details: cited from earlier work
# [3] = tested on: MXT Mouse Mammary Ductal Carcinoma; assay: Subcutaneous treatment of early stage, hormone-dependent MXT mouse mammary ductal carcinoma; format: in vivo
# [4] = biological target: T1, Porcine Endometrial Estrogen Sulfotransferase (Sus scrofa, UniProt A0A286ZW98); assay: Inhibition of porcine endometrial estrogen sulfotransferase; format: biochemical; details: compared within Table III
# T1 construct: from tissue; host or cells: porcine endometrium
# T1 sequence (A0A286ZW98 1-296): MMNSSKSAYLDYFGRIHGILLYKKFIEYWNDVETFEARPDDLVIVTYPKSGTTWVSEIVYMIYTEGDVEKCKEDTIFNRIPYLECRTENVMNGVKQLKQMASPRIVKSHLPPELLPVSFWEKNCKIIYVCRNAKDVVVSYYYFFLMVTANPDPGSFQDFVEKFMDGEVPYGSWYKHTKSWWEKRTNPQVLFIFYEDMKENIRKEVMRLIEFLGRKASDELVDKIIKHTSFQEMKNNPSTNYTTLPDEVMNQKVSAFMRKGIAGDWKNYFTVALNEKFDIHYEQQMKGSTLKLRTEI
# Method: Compounds prepared in the foregoing examples were evaluated as inhibitors of porcine estrogen sulfotransferase as taught by Rozhin et al., J. Biol. Chem., 252:7214-7220 (1977) and Brooks et al., U.S. Pat. No. 4,496,555.
SMILES,Mean tumor volume [1] [cu cm],Mean tumor no. (no. tumors/rat) [1] [no. tumors/rat],growth of hormone dependent mammary tumors (in words) ([2]; DMBA-induced),route of administration to which utility is limited (in words) ([2]; particularly intraperitoneal or subcutaneous injection),significance of treatment results (in words) [1],"growth of MXT mouse mammary ductal carcinoma (in words) ([3]; mouse, in vivo)","T/C Value Day 39 (%) ([3]; s.c. 200 mg/kg, QD 1-19)","Time for Median Tumor to Reach 500 mg ([3]; s.c. 200 mg/kg, QD 1-19, control 18)",estrogen sulfotransferase inhibitory activity (in words) [4]
"COc1ccc2c(c1[N+](=O)[O-])CC[C@@H]1[C@@H]2CC[C@]2(C)C(=O)CC[C@@H]12 [4-Nitroestrone 3-methyl ether, 4-Nitroestrone 3-Methyl Ether]",0.05 ± 0.05,1.35 ± 0.40,found to inhibit the growth of hormone dependent mammary tumors,essentially limited to parental administration,–,–,–,–,–
"COc1c(Br)cc2c(c1Br)CC[C@@H]1[C@@H]2CC[C@]2(C)C(=O)CC[C@@H]12 [2,4-Dibromoestrone 3-methyl ether, 2,4-dibromoestrone 3-methyl ether]",1.24 ± 1.07,4.26 ± 2.51,–,–,insignificant,–,–,–,–
"C[C@]12CC[C@@H]3c4ccc(O)c([N+](=O)[O-])c4CC[C@H]3[C@@H]1CCC2=O [4-Nitroestrone, 4-nitroestrone]",0.75 ± 0.10,1.95 ± 2.60,–,–,insignificant,–,–,–,–
"C[C@]12CC[C@@H]3c4cc([N+](=O)[O-])c(O)c([N+](=O)[O-])c4CC[C@H]3[C@@H]1CCC2=O [2,4-Dinitroestrone, 2,4-dinitroestrone]",1.14 ± 1.37,2.90 ± 1.67,–,–,insignificant,–,–,–,–
"C[C@]12CC[C@@H]3c4cccc([N+](=O)[O-])c4CC[C@H]3[C@@H]1CC[C@@H]2O [4-Nitroestra-1,3,5(10)-trien-17-beta-ol]",–,–,–,–,–,inhibited the growth of MXT mouse mammary ductal carcinoma; also recorded: shown to inhibit the growth of murine MXT mammary ductal carcinoma,8.2,45,most active compound
